According to patent US20040176313A1, “Inhibitors of Src kinase for use in alzheimer's disease” (Aventis Pharma S.A., priority 2002, published 2004):

What was measured:
[1] = test system: Aβ secretion, HEK293 cells transfected with APP695 and SrcYF; assay: Aβ accumulation in culture medium of HEK293 cells co-transfected with APP695 and active Src (SrcYF), sandwich ELISA (FIG. 5); format: cell-based, Human; settings: exposure for 48 hours to 1, 5 and 20 μM PP2 or PP3, sandwich ELISA on culture medium
Method: Human embryonic kidney cells (HEK293) were cultured in Dulbecco's modified minimal medium supplemented with 10% fetal calf serum at 37° C. in a 5% CO2 atmosphere. For transfection, cells were grown for 16 hours in antibiotic-free medium, and transfected with Lipofectamine 2000 (Invitrogen) according to manufacturer's instructions. The total amount of DNA was maintained constant by addition of empty vector DNA. […] The extracts were clarified by centrifugation at 16,000×g at 4° C., and the protein concentration determined by the Bio-Rad protein assay according to manufacturer's instructions. […] Radioactive samples were resolved on 10% SDS-PAGE and quantitated with a Storm 840 phosphorimager (Amersham Pharmacia Biotech). […]
HEK293 cells were transfected with APP695 expression vectors. […] HEK293 cells were co-transfected with APP and either empty vector, or active Abl (Abl-PP), or active Src (SrcYF) kinases, and the secretion of APPsec and β were evaluated. […] Both medium and protein extracts have been used in immunoprecipitation experiments for quantitative dosage of radiolabeled APPsec and holo-APP, respectively. […]

[2] = test system: Aβ secretion, CHO cells stably overexpressing APP751; assay: Aβ secretion from CHO cells stably overexpressing APP751 treated with PP2 or PP3 (FIG. 6); format: cell-based; settings: PP2 5 and 20 μM, PP3 20 μM (highest concentration), time points 1, 3 and 12 hours
Method: Therefore, a line of CHO cells stably overexpressing APP751 form was used, which secretes discrete levels of Aβ. If secretion involves endogenous Src activity, PP2 should be able to inhibit production of Aβ also in this cellular system.
Human embryonic kidney cells (HEK293) were cultured in Dulbecco's modified minimal medium supplemented with 10% fetal calf serum at 37° C. in a 5% CO2 atmosphere. For transfection, cells were grown for 16 hours in antibiotic-free medium, and transfected with Lipofectamine 2000 (Invitrogen) according to manufacturer's instructions. The total amount of DNA was maintained constant by addition of empty vector DNA. 48 hours after transfection, culture medium were recovered, while cells were harvested in ice-cold phosphate buffer saline (PBS) and gently lysed in lysis buffer (50 mM Tris/HCl, pH 7.5, 150 mM NaCl, 0.5% Triton X-100, 10% glycerol, 50 mM NaF, 1mM Na vanadate), in the presence of a protease inhibitor cocktail (Complete, EDTA-free, Roche). The extracts were clarified by centrifugation at 16,000×g at 4° C., and the protein concentration determined by the Bio-Rad protein assay according to manufacturer's instructions. […] Radioactive samples were resolved on 10% SDS-PAGE and quantitated with a Storm 840 phosphorimager (Amersham Pharmacia Biotech). […]

Compound | secreted Aβ [1] | amount of Aβ [2]
CC(C)(C)n1nc(-c2ccc(Cl)cc2)c2c(N)ncnc21 [PP2, 4-amino-5-(4-chlorophenyl)-7-(t-butyl)pyrazolo[3,4d]pyrimidine] | dose-dependent decrease of secreted AP | reduces in a dose-dependent manner the amount of Aβ
Nc1ncnc2c1cnn2-c1ccccc1 [PP3] | do not affect Aβ rise by SrcYF transfection | has no effect
